Source: patent US5043332A, “Novel 11β-substituted -19-nor-steriods” (priority 1981, dated 1991)

How the values were obtained:
[1] = molecular target: T1, Androgen receptor of prostate of rats (Rattus norvegicus, UniProt P15207); experiment: Androgen receptor binding (displacement of tritiated product P)
T1 construct: The prostates were removed, weighed and homogenized at 0° C; from tissue; host or cells: rat prostate, 105,000 g supernatant (castrated male Sprague-Dawley rats)
T1 sequence (P15207 1-902): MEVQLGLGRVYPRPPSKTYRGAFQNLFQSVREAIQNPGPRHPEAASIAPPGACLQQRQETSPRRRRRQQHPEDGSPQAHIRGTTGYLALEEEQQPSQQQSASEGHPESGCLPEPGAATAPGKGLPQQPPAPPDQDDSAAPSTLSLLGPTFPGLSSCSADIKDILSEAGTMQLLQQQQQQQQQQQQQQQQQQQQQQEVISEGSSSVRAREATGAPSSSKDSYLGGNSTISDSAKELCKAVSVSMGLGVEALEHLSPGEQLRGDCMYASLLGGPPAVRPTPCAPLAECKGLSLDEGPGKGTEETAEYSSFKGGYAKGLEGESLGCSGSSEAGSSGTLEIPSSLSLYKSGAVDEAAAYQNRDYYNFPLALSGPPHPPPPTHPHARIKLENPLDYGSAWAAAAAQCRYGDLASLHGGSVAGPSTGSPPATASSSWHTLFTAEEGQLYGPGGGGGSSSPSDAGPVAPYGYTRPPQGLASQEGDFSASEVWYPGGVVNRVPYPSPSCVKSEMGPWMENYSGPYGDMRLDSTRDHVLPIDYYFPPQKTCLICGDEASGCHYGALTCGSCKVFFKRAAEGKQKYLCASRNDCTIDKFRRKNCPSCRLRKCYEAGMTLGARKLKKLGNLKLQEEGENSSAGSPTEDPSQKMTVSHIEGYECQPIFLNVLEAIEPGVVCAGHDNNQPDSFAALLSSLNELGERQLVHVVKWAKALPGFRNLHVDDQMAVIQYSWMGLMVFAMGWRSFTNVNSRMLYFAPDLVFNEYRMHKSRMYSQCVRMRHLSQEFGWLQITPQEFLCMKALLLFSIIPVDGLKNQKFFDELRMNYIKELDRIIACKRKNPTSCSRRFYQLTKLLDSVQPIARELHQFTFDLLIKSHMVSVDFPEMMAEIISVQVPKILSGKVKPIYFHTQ
Protocol: B. Androgen receptor of prostate of rats
Male Sprague-Dawley EPOS rats weighing of 160 to 200 g were castrated and 24 hours later, the animals were killed. The prostates were removed, weighed and homogenized at 0° C. with a polytetrafluoroethylene-glass Potter with a buffered TS solution (Tris, 10 mM, 0.25M Saccharose, HCl-pH of 7.4) using 1 g of tissue per 5 ml of TS. The homogenate was then ultracentrifuged at 105,000 g for 60 […] (T) of product P or 17α-methyl-Δ^4,9,11 -estratriene-17β-ol-3-one in the presence of increasing concentration (0-1,000×10^-9 M) of either cold P, cold testosterone or the test compound. The concentration of tied tritiated (B) was measured for each incubate by the technique of adsorption on carbon-dextran.
(§1) The calculation of the relative affinity of […] (ARL) was identical for all of the above receptor tests. One traced the following two curves: the percentage of tied tritiated hormone B/T as a function of the logarithm of the cold hormone concentration and B/T as a function of the logarithm of the concentration of the cold test product. One determined the line of the equation. [formula]
(§2) The intersection of the I50 line and the curves permits one to determine the concentrations of the cold hormone of the reference (CH) and the cold test compound (CX) which inhibit by 50% the tieing of tritiated hormone with the receptor. The relative affinity of tieing (ARL) of the test product was determined by the equation: [formula]

[2] = molecular target: T2, Gluocorticoid receptor of thymus of rats (Rattus norvegicus, UniProt P06536); experiment: Glucocorticoid receptor binding (displacement of tritiated dexamethasone); conditions: incubation 4 H at 0° C.
T2 construct: The thymus were removed and homogenized at 0° C; from tissue; host or cells: rat thymus, 105,000 g supernatant (adrenalectomized male Sprague-Dawley rats)
T2 sequence (P06536 1-795): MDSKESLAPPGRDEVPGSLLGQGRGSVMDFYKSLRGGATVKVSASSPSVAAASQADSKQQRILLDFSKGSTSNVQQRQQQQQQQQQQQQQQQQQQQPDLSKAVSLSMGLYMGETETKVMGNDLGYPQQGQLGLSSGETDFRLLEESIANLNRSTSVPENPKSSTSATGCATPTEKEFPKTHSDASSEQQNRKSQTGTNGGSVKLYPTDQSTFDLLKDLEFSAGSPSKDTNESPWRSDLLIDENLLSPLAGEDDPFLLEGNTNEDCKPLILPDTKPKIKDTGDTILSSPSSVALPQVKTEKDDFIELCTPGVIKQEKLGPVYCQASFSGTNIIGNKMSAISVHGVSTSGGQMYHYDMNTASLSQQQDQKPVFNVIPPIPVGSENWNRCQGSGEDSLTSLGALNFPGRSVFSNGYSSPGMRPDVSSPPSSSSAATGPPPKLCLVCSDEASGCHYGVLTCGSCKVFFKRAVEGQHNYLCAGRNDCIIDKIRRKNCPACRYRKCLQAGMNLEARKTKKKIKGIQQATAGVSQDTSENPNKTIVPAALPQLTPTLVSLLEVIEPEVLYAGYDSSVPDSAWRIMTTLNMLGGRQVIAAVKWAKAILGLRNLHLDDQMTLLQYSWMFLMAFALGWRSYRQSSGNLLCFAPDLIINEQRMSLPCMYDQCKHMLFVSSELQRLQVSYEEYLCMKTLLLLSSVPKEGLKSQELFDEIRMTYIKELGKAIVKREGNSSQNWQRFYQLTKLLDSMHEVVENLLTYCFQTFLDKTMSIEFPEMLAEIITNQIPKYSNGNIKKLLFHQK
Protocol: D. Gluocorticoid receptor of thymus of rats
Male Sprague-Dawley EPOS rats weighing 160 to 200 g were surrenalectomized and the animals were killed 4 to 8 days later. The thymus were removed and homogenized at 0° C. in a buffered TS solution of 10 mM, Tris, 0.25M of Saccharose, 2 mM of dithiothreitol HCl for a pH of 7.4 using a polytetrafluoroethylene-glass Potter at a rate of 1 g of tissue per 10 ml of TS. […] The concentration of tied tritiated dexamethasone (B) was measured for each incubate by the adsorption on carbon-dextran technique.
as §1, §2

[3] = molecular target: T3, Estrogen receptor of uterus of mice (Mus musculus, UniProt P19785); experiment: Estrogen receptor binding (displacement of tritiated estradiol); conditions: for agonist or antagonistic activity to estrogens: concluded from receptor affinity
T3 construct: the uterus were removed and homogenized at 0° C; from tissue; host or cells: mouse uterus, 105,000 g supernatant (immature females 18 to 21 days old)
T3 sequence (P19785 1-599): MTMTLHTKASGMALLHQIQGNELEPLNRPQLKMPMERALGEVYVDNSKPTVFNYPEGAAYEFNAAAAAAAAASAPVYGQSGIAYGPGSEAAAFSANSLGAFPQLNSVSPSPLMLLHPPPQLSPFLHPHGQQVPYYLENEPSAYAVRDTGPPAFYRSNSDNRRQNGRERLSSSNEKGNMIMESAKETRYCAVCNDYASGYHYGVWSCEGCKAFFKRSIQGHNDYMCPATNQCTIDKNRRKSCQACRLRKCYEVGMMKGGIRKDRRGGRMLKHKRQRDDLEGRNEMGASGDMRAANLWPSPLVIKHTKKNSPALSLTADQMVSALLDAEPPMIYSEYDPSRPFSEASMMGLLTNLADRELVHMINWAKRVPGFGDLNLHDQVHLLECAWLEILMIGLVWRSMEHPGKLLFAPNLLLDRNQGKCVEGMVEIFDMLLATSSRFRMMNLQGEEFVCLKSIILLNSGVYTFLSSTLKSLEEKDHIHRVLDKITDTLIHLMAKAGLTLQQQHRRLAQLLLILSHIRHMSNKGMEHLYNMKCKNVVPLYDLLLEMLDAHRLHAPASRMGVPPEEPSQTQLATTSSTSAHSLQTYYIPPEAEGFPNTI
Protocol: E. Estrogen receptor of uterus of mice
Immature female mice 18 to 21 days old were killed and the uterus were removed and homogenized at 0° C. with a polytetrafluoroethylene-glass Potter in a buffered TS solution consisting of 10 mM, Tris, 0125M Saccharose, HCl for a pH of 7.4 at a rate of 1 g of tissue per 25 ml of TS. The homogenate was then ultracentrigued at 105,000 g for 90 minutes at 0° C. and aliquoits of the resulting […] were incubated at 0° C. for a time (t) with a constant concentration (T) of tritiated estradiol in the presence of increasing concentrations (0 to 1000×10^-9 M) of either cold estradiol or cold test compound. The concentration of tied tritiated estradiol (B) was measured for each incubate by the technique of adsorption on carbon-dextran.
as §1, §2

[4] = system: uterine endometrium; experiment: Progestomimetic activity, oral, change in uterine endometrium (McPhail); assay type: in vivo, immature female rabbits; conditions: progesterone 0.2 mg/kg subcutaneously
Protocol: (§3) IV. Progestomimetic and Anti-progestomimetic Activity
(§4) a) Groups of immature female rabbits weighing about 1 kg had administered to them subcutaneously from day 1 to day 5, 5 μg of estradiol. The product tested was afterward administered orally from day 8 to day 11 in a volume of 0.5 cm^3 of water containing 0.5% of carboxymethyl cellulose and 0.2% of Tween. On day 12, the rabbits were sacrificed, their uteruses were retained and fixed in Bouin's solution and histologically studied.
(§5) The changes in the uterine endometrium were noted according to the method of McPhail.

[5] = system: uterine endometrium; experiment: Anti-progestomimetic activity versus progesterone, oral, change in uterine endometrium (McPhail); assay type: in vivo, immature female rabbits; conditions: progesterone 0.2 mg/kg subcutaneously, alone
Protocol: as §3, §4, §5

[6] = system: uterine endometrium; experiment: Anti-progestomimetic activity versus progesterone, intrauterine, change in uterine endometrium (McPhail); assay type: in vivo, immature female rabbits; conditions: progesterone alone 10 μg/rabbit, method of McPhail
Protocol: Groups of three immature female rabbits weighing about 1 kg were topically treated on the dorsal skin with 25 μg of estradiol in 10 μl of ethanol on day 1. On day 4 the product to be tested dissolved in 0.1 ml, of sesame oil containing 5% benzyl alcohol was introduced into a part of the uterus isolated between two ligatures. On the sixth day the animals were sacrificed, their uteruses retained and fixed in Bouin's solution for histological examination. Changes in the uterine endometrium were noted after the method of McPhail.

| Compound | relative affinity of tieing (ARL), Androgen ([1]; incubation 1/2H at 0° C.) | relative affinity of tieing (ARL), Androgen ([1]; incubation 24 H at 0° C.) | relative affinity of tieing (ARL), Glucocorticoid [2] | agonist or antagonistic activity to estrogens [3] | relative affinity of tieing (ARL), Estrogen ([3]; incubation 2 H at 0° C.) | relative affinity of tieing (ARL), Estrogen ([3]; incubation 5 H (25° C.)) | CHANGE IN THE ENDOMETRIUM [4] | CHANGE IN THE ENDOMETRIUM [5] | CHANGE IN THE ENDOMETRIUM [6] |
| --- | --- | --- | --- | --- | --- | --- | --- | --- | --- |
| CN(C)CCOc1ccc([C@H]2C[C@]3(C)[C@@H](O)CC[C@H]3[C@@H]3CCc4cc(O)ccc4[C@H]32)cc1 [Example 13, 11β-[4-(2-dimethylaminoethoxy)-phenyl]-Δ^1,3,5(10) -estratriene-3,17β-diol] | 5 | 6 | 3,9 | present an agonist or antagonistic activity to estrogens | 78 | 239 |  |  |  |
| CN(C)CCOc1ccc([C@H]2C[C@]3(C)[C@@H](O)CC[C@H]3[C@@H]3CCc4ccccc4[C@H]32)cc1 [Example 14, 11β-[4-(2-dimethylaminoethoxy)-phenyl]-Δ^1,3,5(10) -estratriene-17β-ol] | 10,6 | 0,5 | 0,4 | present an agonist or antagonistic activity to estrogens | 4,1 | 1,4 |  |  |  |
| CN(C)CCOc1ccc2c(c1)CC[C@@H]1[C@@H]2[C@@H](c2ccccc2)C[C@]2(C)[C@@H](O)CC[C@@H]12 [Example 15, 3-(2-dimethylamino-ethoxy)-11β-phenyl-Δ^1,3,5(10) -estratriene-17β-ol] | 1,3 | 0,2 | 2 |  | 0,1 | 0,1 |  |  |  |
| CC(=O)[C@H]1CC[C@H]2[C@@H]3CCC4=CC(=O)CC[C@]4(C)[C@H]3CC[C@]12C [Progesterone, progesterone, reference compound] |  |  |  |  |  |  | 3.2 McPHAIL UNTS | 3.0 McPHAIL UNTS | 2.7 |
